From patent US12168763B2, “Microorganisms and methods for reducing bacterial contamination” (Melio Peptide Systems Inc., priority 2020, dated 2024)

Tested on: L. fermentum NCCB 46038
Experiment: Soft-agar overlay assay of S. cerevisiae BY4742 secreting persulcatusin variants from pHVXU plasmids
Conditions: for Change in activity: alanine scanning of persulcatusin, relative to wild-type, soft-agar overlay; for Increase in Activity: random mutagenesis clones of persulcatusin, increase of growth inhibition zones

Substance: C4A: persulcatusin (SEQ ID NO: 1) alanine-scan variant C4A (GFGAPFNQGACHRHCRSIGRRGGYCAGLFKQTCTCYSR; listed as Ixodes persulcatus) [Mutation C4A]
- Change in activity: −

Substance: C11A: persulcatusin (SEQ ID NO: 1) alanine-scan variant C11A (GFGCPFNQGAAHRHCRSIGRRGGYCAGLFKQTCTCYSR; listed as Ixodes persulcatus) [Mutation C11A]
- Change in activity: −

Substance: C15A: persulcatusin (SEQ ID NO: 1) alanine-scan variant C15A (GFGCPFNQGACHRHARSIGRRGGYCAGLFKQTCTCYSR; listed as Ixodes persulcatus) [Mutation C15A]
- Change in activity: −

Substance: C25A: persulcatusin (SEQ ID NO: 1) alanine-scan variant C25A (GFGCPFNQGACHRHCRSIGRRGGYAAGLFKQTCTCYSR; listed as Ixodes persulcatus) [Mutation C25A]
- Change in activity: −

Substance: C33A: persulcatusin (SEQ ID NO: 1) alanine-scan variant C33A (GFGCPFNQGACHRHCRSIGRRGGYCAGLFKQTATCYSR; listed as Ixodes persulcatus) [Mutation C33A]
- Change in activity: −

Substance: C35A: persulcatusin (SEQ ID NO: 1) alanine-scan variant C35A (GFGCPFNQGACHRHCRSIGRRGGYCAGLFKQTCTAYSR; listed as Ixodes persulcatus) [Mutation C35A]
- Change in activity: −

Substance: Engineered persulcatusin with [Mutation F6A, Engineered persulcatusin with [F6A]]
- Change in activity: +

Substance: Engineered persulcatusin with [Mutation F29A, Engineered persulcatusin with [F29A]]
- Change in activity: +

Substance: Engineered persulcatusin with [Mutation L28A, Engineered persulcatusin with [L28A]]
- Change in activity: +

Substance: Engineered persulcatusin with [Mutation R13A, Engineered persulcatusin with [R13A]]
- Change in activity: +

Substance: Engineered persulcatusin with [Mutation R16A, Engineered persulcatusin with [R16A]]
- Change in activity: +

Substance: Engineered persulcatusin with [Mutation R20A, Engineered persulcatusin with [R20A]]
- Change in activity: +

Substance: Engineered persulcatusin with [Mutation R21A, Engineered persulcatusin with [R21A]]
- Change in activity: +

Substance: Engineered persulcatusin with [Mutation R38A, Engineered persulcatusin with [R38A]]
- Change in activity: +

Substance: Engineered persulcatusin with [Mutation S7-140-1, Engineered persulcatusin with [R13S/I18N]]
- Increase in Activity: +

Substance: Engineered persulcatusin with [Mutation S7-140-2, Engineered persulcatusin with [R13S]]
- Increase in Activity: +

Substance: Engineered persulcatusin with [Mutation S7-140-3, Engineered persulcatusin with [R20S/R21G]]
- Increase in Activity: +

Substance: Engineered persulcatusin with [Mutation S7-140-7, Engineered persulcatusin with [R16G/F29V]]
- Increase in Activity: +

Substance: Engineered persulcatusin with [Mutation S7-140-8, Engineered persulcatusin with [R21G]]
- Increase in Activity: +

Substance: Engineered persulcatusin with [Mutation S7-140-9, Engineered persulcatusin with [A26D]]
- Increase in Activity: +

Substance: Engineered persulcatusin with [Mutation S7-140-10, Engineered persulcatusin with [R13S/R21G]]
- Increase in Activity: +

Substance: Engineered persulcatusin with [Mutation S7-140-18, Engineered persulcatusin with [N7D/R16S]]
- Increase in Activity: +

Substance: Engineered persulcatusin with [Mutation S7-140-34, Engineered persulcatusin with [R13S/R20T]]
- Increase in Activity: ++

Substance: Engineered persulcatusin with [Mutation S7-140-42, Engineered persulcatusin with [N7D/F29L]]
- Increase in Activity: ++

Substance: Engineered persulcatusin with [Mutation S7-144-4, Engineered persulcatusin with [G9D/R20S]]
- Increase in Activity: ++

Substance: Engineered persulcatusin with [Mutation S7-144-11, Engineered persulcatusin with [R16S/R20S]]
- Increase in Activity: ++

Substance: Engineered persulcatusin with [Mutation S7-144-43, Engineered persulcatusin with [R13S/L28M]]
- Increase in Activity: +

Substance: Engineered persulcatusin with [Mutation S7-144-59, Engineered persulcatusin with [R13S/R16K]]
- Increase in Activity: +

Substance: Engineered persulcatusin with [Mutation S7-144-75, Engineered persulcatusin with [R13S/A26D]]
- Increase in Activity: ++

Substance: Engineered persulcatusin with [Mutation S7-156-22, Engineered persulcatusin with [G9D/I18F/F29L]]
- Increase in Activity: +

Substance: Engineered persulcatusin with [Mutation S7-156-36, Engineered persulcatusin with [F6S/R13S/R16K/I18V]]
- Increase in Activity: ++

Substance: Engineered persulcatusin with [Mutation S7-176-3-1, Engineered persulcatusin with [R13S/R21S]]
- Increase in Activity: ++

Substance: Engineered persulcatusin with [Mutation S7-176-4-1, Engineered persulcatusin with [F6V/R13S/A26D]]
- Increase in Activity: ++

Substance: Engineered persulcatusin with [Mutation S7-176-5-1, Engineered persulcatusin with [F6L/G9D/R20K]]
- Increase in Activity: ++

Substance: Engineered persulcatusin with [Mutation S7-192-4, Engineered persulcatusin with [N7D/H14F/R16S]]
- Increase in Activity: ++

Substance: Engineered persulcatusin with [Mutation S7-192-7, Engineered persulcatusin with [G9D/H14Q]]
- Increase in Activity: ++

Substance: Engineered persulcatusin with [Mutation S7-192-22, Engineered persulcatusin with [F6L/N7D/H14Q]]
- Increase in Activity: ++

Substance: Engineered persulcatusin with [Mutation S7-192-26, Engineered persulcatusin with [F6L/G9D/H14Q]]
- Increase in Activity: +++
